Consider 30 compounds from patent publication US10472346B2, “Potent gamma-secretase modulators” (The General Hospital Coporation, priority 2014, dated 2019).

For this experiment, the system named is Aβ42. Kind of experiment: Aβ42 IC50 assay (SHSYSY-APP cell-based screening, UCSD sandwich Aβ42 ELISA). An excerpt:
FIG. 8: Representative concentration response curves of Compound 1 using our primary and orthogonal medium throughput SHSYSY-APP cell-based screening assays (10). Compounds are first screened two times in triplicate in our UCSD sandwich Aβ42 ELISA on sequential days and the average of the two assays must be within 3-fold of each other before being entered into the CDD relational database. The UCSD sandwich ELISA assay can easily handle 20 compounds per week. Compounds with Aβ42 IC50 values <100 nM continue through the testing funnel. The Z′ score and the % CV for the UCSD Aβ42 sandwich ELISA assay are 0.8 and 4, respectively. For the Meso Scale triplex assay the Z′ scores are 0.7, 0.9 and 0.6 Aβ42, Aβ40 and Aβ38, respectively and the % CV's are 7, 2 and 1 for Aβ42, Aβ40 and Aβ38, respectively. Aβ total peptides are measured using a sandwich ELISA.
Tabular Results of A1142 Assays Conducted on Compounds of Examples 5-102. Assays are Aβ42 IC50 (nM).
One may read the IC50 as the concentration that gives 50% inhibition. A higher IC50 goes with a need for much substance. Consider `COc1nc(-c2cc(C)c(NC(C)Cc3ccc(F)cc3)nn2)ccc1-n1cnc(C)c1` (racemic) [Example 54, (+/−)—N-(1-(4-fluorophenyl)propan-2-yl)-6-(6-methoxy-5-(4-methyl-1H-imidazol-1-yl)pyridin-2-yl)-4-methylpyridazin-3-amine], for which the midpoint of inhibition, the IC50, lay at 29 nM.

Consider `COc1nc(-c2cc(C)c(NC(C)c3nc4ccccc4o3)nn2)ccc1-n1cnc(C)c1` (racemic) [Example 74, (+/−)—N-(1-(benzo[d]oxazol-2-yl)ethyl)-6-(6-methoxy-5-(4-methyl-1H-imidazol-1-yl)pyridin-2-yl)-4-methylpyridazin-3-amine], for which the 50% inhibitory concentration (IC50) was determined as 42 nM.

`CCc1cc(-c2ccc(-n3cnc(C)c3)c(OC)n2)nnc1N[C@@H](C)c1ccc(F)cc1` [Example 5, (S)-4-Ethyl-N-(1-(4-fluorophenyl)ethyl)-6-(6-methoxy-5-(4-methyl-1H-imidazol-1-yl)pyridin-2-yl)pyridazin-3-amine] displayed an IC50 of 7.8 nM.

Compound `CCc1cc(-c2ccc(-n3cnc(C)c3)c(OC)n2)nnc1N[C@@H](C)c1ccccc1` [Example 7, (S)-4-ethyl-6-(6-methoxy-5-(4-methyl-1H-imidazol-1-yl)pyridin-2-yl)-N-(1-phenylethyl)pyridazin-3-amine] yielded an IC50 of 5.5 nM.

For `CCc1cc(-c2ccc(-n3cnc(C)c3)c(OC)n2)nnc1NCc1ccc(F)cc1` [Example 8, 4-ethyl-N-(4-fluorobenzyl)-6-(6-methoxy-5-(4-methyl-1H-imidazol-1-yl)pyridin-2-yl)pyridazin-3-amine], inhibition was half-maximal at 33 nM (IC50).

Compound `CCc1cc(-c2ccc(-n3cnc(C)c3)c(OC)n2)nnc1N[C@H](C)c1ccccc1` [Example 9, (R)-4-ethyl-6-(6-methoxy-5-(4-methyl-1H-imidazol-1-yl)pyridin-2-yl)-N-(1-phenylethyl)pyridazin-3-amine] had an IC50 of 46 nM.

On to `CCc1cc(-c2ccc(-n3cnc(C)c3)c(OC)n2)nnc1N[C@H](C)c1ccc(F)cc1` [Example 10, (R)-4-ethyl-N-(1-(4-fluorophenyl)ethyl)-6-(6-methoxy-5-(4-methyl-1H-imidazol-1-yl)pyridin-2-yl)pyridazin-3-amine], for which the 50% inhibitory concentration (IC50) is 47.5 nM.

In turn, `COc1nc(-c2cc(C(C)C)c(N[C@@H](C)c3ccc(F)cc3)nn2)ccc1-n1cnc(C)c1` [Example 11, (S)—N-(1-(4-fluorophenyl)ethyl)-4-isopropyl-6-(6-methoxy-5-(4-methyl-1H-imidazol-1-yl)pyridin-2-yl)pyridazin-3-amine] gave an IC50 of 7.5 nM.

Compound `COc1nc(-c2cc(C(C)C)c(N[C@@H](C)c3ccccc3)nn2)ccc1-n1cnc(C)c1` [Example 14, (S)-4-isopropyl-6-(6-methoxy-5-(4-methyl-1H-imidazol-1-yl)pyridin-2-yl)-N-(1-phenylethyl)pyridazin-3-amine] had a 50% inhibitory concentration (IC50) of 7.2 nM.

`COc1nc(-c2nnc(N[C@@H](C)c3ccc(F)cc3)c(C)c2C)ccc1-n1cnc(C)c1` [Example 15, (S)—N-(1-(4-Fluorophenyl)ethyl)-6-(6-methoxy-5-(4-methyl-1H-imidazol-1-yl)pyridin-2-yl)-4,5-dimethylpyridazin-3-amine] gave an IC50 of 67 nM.

In the case of `COc1nc(-c2nnc(N[C@@H](C)c3ccccc3)c(C)c2C)ccc1-n1cnc(C)c1` [Example 17, (S)-6-(6-methoxy-5-(4-methyl-1H-imidazol-1-yl)pyridin-2-yl)-4,5-dimethyl-N-(1-phenylethyl)pyridazin-3-amine], the midpoint of inhibition, the IC50, lay at 37 nM.

Compound `COc1nc(-c2nnc(NCc3ccc(F)cc3)c(C)c2C)ccc1-n1cnc(C)c1` [Example 18, N-(4-fluorobenzyl)-6-(6-methoxy-5-(4-methyl-1H-imidazol-1-yl)pyridin-2-yl)-4,5-dimethylpyridazin-3-amine] displayed an IC50 of 82 nM.

The compound `COc1nc(-c2cc(C)c(N(C)[C@@H](C)c3ccc(F)cc3)nn2)ccc1-n1cnc(C)c1` [Example 19, (S)—N-(1-(4-fluorophenyl)ethyl)-6-(6-methoxy-5-(4-methyl-1H-imidazol-1-yl)pyridin-2-yl)-N,4-dimethylpyridazin-3-amine] returned a half-maximal inhibitory concentration (IC50) of 240 nM.

`CCN(c1nnc(-c2ccc(-n3cnc(C)c3)c(OC)n2)cc1C)[C@@H](C)c1ccc(F)cc1` [Example 20, (S)—N-ethyl-N-(1-(4-fluorophenyl)ethyl)-6-(6-methoxy-5-(4-methyl-1H-imidazol-1-yl)pyridin-2-yl)-4-methylpyridazin-3-amine] registered an IC50 of 132 nM.

As for `CC[C@@H](c1ccc(F)cc1)N(C)c1nnc(-c2ccc(-n3cnc(C)c3)c(OC)n2)cc1C` [Example 21, (S)—N-(1-(4-fluorophenyl)propyl)-6-(6-methoxy-5-(4-methyl-1H-imidazol-1-yl)pyridin-2-yl)-N,4-dimethylpyridazin-3-amine], it took 61 nM to reach half-maximal inhibition (IC50).

In turn, `COc1nc(-c2ccc(N[C@@H](C)c3ccccc3)nn2)ccc1-n1cnc(C)c1` [Example 22, (S)-6-(6-methoxy-5-(4-methyl-1H-imidazol-1-yl)pyridin-2-yl)-N-(1-phenylethyl)pyridazin-3-amine] had an IC50 of 16 nM.

Take `COc1nc(-c2ccc(NC(C)(C)c3ccc(F)cc3)nn2)ccc1-n1cnc(C)c1` [Example 23, N-(2-(4-Fluorophenyl)propan-2-yl)-6-(6-methoxy-5-(4-methyl-1H-imidazol-1-yl)pyridin-2-yl)pyridazin-3-amine]: inhibition was half-maximal at 22 nM (IC50).

`COc1nc(-c2nnc(N[C@@H](C)c3ccc(F)cc3)cc2C)ccc1-n1cnc(C)c1` [Example 27, (S)—N-(1-(4-fluorophenyl)ethyl)-6-(6-methoxy-5-(4-methyl-1H-imidazol-1-yl)pyridin-2-yl)-5-methylpyridazin-3-amine]: the IC50 stood at 21 nM.

Consider `COc1nc(-c2nnc(N[C@@H](C)c3ccc(F)cc3)c3c2CCC3)ccc1-n1cnc(C)c1` [Example 29, (S)—N-(1-(4-Fluorophenyl)ethyl)-4-(6-methoxy-5-(4-methyl-1H-imidazol-1-yl)pyridin-2-yl)-6,7-dihydro-5H-cyclopenta[d]pyridazin-1-amine], for which half-maximal inhibition (IC50) required 12.8 nM.

`COc1nc(-c2cc(C)c(N[C@@H](C)c3ccc(Cl)cc3)nn2)ccc1-n1cnc(C)c1` [Example 31, (S)—N-(1-(4-chlorophenyl)ethyl)-6-(6-methoxy-5-(4-methyl-1H-imidazol-1-yl)pyridin-2-yl)-4-methylpyridazin-3-amine] came in with an IC50 of 5.8 nM.

Take `COc1nc(-c2cc(C)c(N[C@@H](C)c3cccc(Cl)c3)nn2)ccc1-n1cnc(C)c1` [Example 33, (S)—N-(1-(3-chlorophenyl)ethyl)-6-(6-methoxy-5-(4-methyl-1H-imidazol-1-yl)pyridin-2-yl)-4-methylpyridazin-3-amine]: the IC50 stood at 6.8 nM.

Compound `COc1nc(-c2cc(C)c(N[C@@H](C)c3ccccc3)nn2)ccc1-n1cnc(C)c1` [Example 35, (S)-6-(6-methoxy-5-(4-methyl-1H-imidazol-1-yl)pyridin-2-yl)-4-methyl-N-(1-phenylethyl)pyridazin-3-amine] displayed an IC50 of 12 nM.

For `COc1ccc([C@H](C)Nc2nnc(-c3ccc(-n4cnc(C)c4)c(OC)n3)cc2C)cc1` [Example 36, (S)-6-(6-methoxy-5-(4-methyl-1H-imidazol-1-yl)pyridin-2-yl)-N-(1-(4-methoxyphenyl)ethyl)-4-methylpyridazin-3-amine], half-maximal inhibition (IC50) required 6.5 nM.

Compound `COc1nc(-c2cc(C)c(N[C@@H](C)c3ccc(C(F)(F)F)cc3)nn2)ccc1-n1cnc(C)c1` [Example 37, (S)-6-(6-methoxy-5-(4-methyl-1H-imidazol-1-yl)pyridin-2-yl)-4-methyl-N-(1-(4-(trifluoromethyl)phenyl)ethyl)pyridazin-3-amine] displayed an IC50 of 6.3 nM.

For the compound `COc1nc(-c2cc(C)c(N[C@@H](C)c3cccc(F)c3)nn2)ccc1-n1cnc(C)c1` [Example 38, (S)—N-(1-(3-fluorophenyl)ethyl)-6-(6-methoxy-5-(4-methyl-1H-imidazol-1-yl)pyridin-2-yl)-4-methylpyridazin-3-amine], the IC50 is 7 nM.

`COc1nc(-c2cc(C)c(N[C@@H](C)c3ccc(F)c(F)c3)nn2)ccc1-n1cnc(C)c1` [Example 39, (S)—N-(1-(3,4-difluorophenyl)ethyl)-6-(6-methoxy-5-(4-methyl-1H-imidazol-1-yl)pyridin-2-yl)-4-methylpyridazin-3-amine] registered a half-inhibitory concentration (IC50) of 6.5 nM.

`CC[C@H](Nc1nnc(-c2ccc(-n3cnc(C)c3)c(OC)n2)cc1C)c1ccc(F)cc1` [Example 40, (S)—N-(1-(4-fluorophenyl)propyl)-6-(6-methoxy-5-(4-methyl-1H-imidazol-1-yl)pyridin-2-yl)-4-methylpyridazin-3-amine]: half-maximal inhibition (IC50) required 6.5 nM.

In turn, `COc1ccccc1[C@H](C)Nc1nnc(-c2ccc(-n3cnc(C)c3)c(OC)n2)cc1C` [Example 41, (S)-6-(6-methoxy-5-(4-methyl-1H-imidazol-1-yl)pyridin-2-yl)-N-(1-(2-methoxyphenyl)ethyl)-4-methylpyridazin-3-amine] came in with an IC50 of 17.5 nM.

With `COc1nc(-c2cc(C)c(N[C@@H](C)c3ccc(C)cc3)nn2)ccc1-n1cnc(C)c1` [Example 42, (S)-6-(6-methoxy-5-(4-methyl-1H-imidazol-1-yl)pyridin-2-yl)-4-methyl-N-(1-(p-tolyl)ethyl)pyridazin-3-amine], the IC50 came out at 7.5 nM.

Regarding `COc1nc(-c2cc(C)c(N[C@@H](C)c3cc(C(F)(F)F)cc(C(F)(F)F)c3)nn2)ccc1-n1cnc(C)c1` [Example 43, (S)—N-(1-(3,5-bis(trifluoromethyl)phenyl)ethyl)-6-(6-methoxy-5-(4-methyl-1H-imidazol-1-yl)pyridin-2-yl)-4-methylpyridazin-3-amine], the IC50 amounted to 7.5 nM.
